Data reported in ChEMBL document CHEMBL3885861, “Open TG-GATES”.

Species on record: Rattus norvegicus
Assay: Open TG-GATES - Regimen: Single
Type: toxicity, organism-based, Sprague-Dawley
Design: regimen Single, gender Male, age 6 weeks
Conditions: in vivo, po, 1000 mg/kg, route gavage, dose level Middle; for APTT / Bas / Eos / Fbg / Hb / Ht / Lym / MCHC / MCV / Mono / Neu / PT / Plat / RBC / Ret / WBC: tissue Blood; for KIDNEY_L / KIDNEY_R / KIDNEY_TOTAL: tissue Kidney; for LIVER: tissue Liver; for ALP / ALT / AST / BUN / CRE / DBIL / GLC / IP / K / LDH / Na / PL / RALB / TBIL / TC / TG / TP / gamma-GTP: tissue Plasma

Which TERMINAL_BW (3 h) does the source give for `C#C[C@]1(O)CC[C@H]2[C@@H]3CCC4=Cc5oncc5C[C@]4(C)[C@H]3CC[C@@]21C` [DANAZOL] here?
Its TERMINAL_BW is 216 g.

What about the APTT (3 h) of the same compound?
Its APTT is 22.9 s.

What about the Bas (3 h) of the same compound?
Its Bas is 0%.

And the Eos (3 h)?
The Eos was 1%.

And the Fbg (3 h)?
The Fbg was 300.8 mg/dL.

And the Hb (3 h)?
The Hb was 13.5 g/dL.

What about the Ht (3 h) of the same compound?
Its Ht is 40.7%.

What about the Lym (3 h) of the same compound?
Its Lym is 79.2%.

And the MCHC (3 h)?
Its MCHC is 33.1%.

What about the MCV (3 h) of the same compound?
The MCV was 63.8 fL.

And the Mono (3 h)?
The Mono was 2.4%.

And the Neu (3 h)?
The Neu was 16.2%.

And the PT (3 h)?
Its PT is 15.7 s.

And the Plat (3 h)?
Its Plat is 103.2 x10_4/uL.

What about the RBC (3 h) of the same compound?
Its RBC is 638.4 x10_4/ul.

What about the Ret (3 h) of the same compound?
Its Ret is 7.1%.

And the WBC (3 h)?
Its WBC is 83.8 x10_2/uL.

And the KIDNEY_L (3 h)?
The KIDNEY_L was 0.9 g.

What about the KIDNEY_R (3 h) of the same compound?
The KIDNEY_R was 0.9 g.

What about the KIDNEY_TOTAL (3 h) of the same compound?
The KIDNEY_TOTAL was 1.8 g.

And the LIVER (3 h)?
Its LIVER is 9.6 g.

And the ALP (3 h)?
Its ALP is 1405.8 IU/L.

And the ALT (3 h)?
The ALT was 41.8 IU/L.

What about the AST (3 h) of the same compound?
The AST was 78 IU/L.

And the BUN (3 h)?
Its BUN is 14 mg/dL.

And the CRE (3 h)?
The CRE was 0.2 mg/dL.

And the DBIL (3 h)?
Its DBIL is 0.002 mg/dL.

What about the GLC (3 h) of the same compound?
The GLC was 178.6 mg/dL.

And the IP (3 h)?
Its IP is 7.6 mg/dL.

And the K (3 h)?
The K was 4.1 meq/L.

What about the LDH (3 h) of the same compound?
Its LDH is 128 IU/L.

And the Na (3 h)?
Its Na is 142.4 meq/L.

And the PL (3 h)?
Its PL is 129 mg/dL.

What about the RALB (3 h) of the same compound?
The RALB was 3 g/dL.

What about the TBIL (3 h) of the same compound?
The TBIL was 0.022 mg/dL.

What about the TC (3 h) of the same compound?
Its TC is 66.6 mg/dL.

What about the TG (3 h) of the same compound?
The TG was 73.4 mg/dL.

And the TP (3 h)?
Its TP is 5.5 g/dL.

And the gamma-GTP (3 h)?
The gamma-GTP was 1.8 IU/L.

And the TERMINAL_BW (6 h)?
The TERMINAL_BW was 216.7 g.

And the APTT (6 h)?
The APTT was 22.9 s.

And the Bas (6 h)?
Its Bas is 0%.

What about the Eos (6 h) of the same compound?
The Eos was 1%.

What about the Fbg (6 h) of the same compound?
Its Fbg is 306.4 mg/dL.

And the Hb (6 h)?
The Hb was 13 g/dL.

What about the Ht (6 h) of the same compound?
The Ht was 39.6%.

And the Lym (6 h)?
The Lym was 74.2%.

And the MCHC (6 h)?
Its MCHC is 32.8%.

And the MCV (6 h)?
Its MCV is 62.6 fL.

And the Mono (6 h)?
The Mono was 3%.

And the Neu (6 h)?
Its Neu is 21%.

And the PT (6 h)?
The PT was 16.4 s.

And the Plat (6 h)?
Its Plat is 107.1 x10_4/uL.

What about the RBC (6 h) of the same compound?
The RBC was 633.6 x10_4/ul.

And the Ret (6 h)?
Its Ret is 7.6%.

And the WBC (6 h)?
Its WBC is 97.7 x10_2/uL.

And the KIDNEY_L (6 h)?
The KIDNEY_L was 0.9 g.

What about the KIDNEY_R (6 h) of the same compound?
Its KIDNEY_R is 1 g.

What about the KIDNEY_TOTAL (6 h) of the same compound?
Its KIDNEY_TOTAL is 1.9 g.

And the LIVER (6 h)?
The LIVER was 9.5 g.

What about the ALP (6 h) of the same compound?
The ALP was 1279 IU/L.

What about the ALT (6 h) of the same compound?
Its ALT is 34.4 IU/L.

What about the AST (6 h) of the same compound?
Its AST is 70.8 IU/L.

And the BUN (6 h)?
The BUN was 10.2 mg/dL.

What about the CRE (6 h) of the same compound?
Its CRE is 0.1 mg/dL.

And the DBIL (6 h)?
Its DBIL is 0.002 mg/dL.

And the GLC (6 h)?
Its GLC is 181.8 mg/dL.

What about the IP (6 h) of the same compound?
The IP was 9.3 mg/dL.

And the K (6 h)?
Its K is 4.2 meq/L.

What about the LDH (6 h) of the same compound?
The LDH was 139.8 IU/L.

What about the Na (6 h) of the same compound?
The Na was 141.4 meq/L.

And the PL (6 h)?
Its PL is 131.6 mg/dL.

What about the RALB (6 h) of the same compound?
Its RALB is 3 g/dL.

What about the TBIL (6 h) of the same compound?
Its TBIL is 0.026 mg/dL.

What about the TC (6 h) of the same compound?
Its TC is 67 mg/dL.

And the TG (6 h)?
The TG was 60.4 mg/dL.

What about the TP (6 h) of the same compound?
Its TP is 5.4 g/dL.

And the gamma-GTP (6 h)?
Its gamma-GTP is 1.4 IU/L.

And the TERMINAL_BW (9 h)?
The TERMINAL_BW was 208.1 g.

And the APTT (9 h)?
Its APTT is 21.9 s.

And the Bas (9 h)?
The Bas was 0%.

What about the Eos (9 h) of the same compound?
The Eos was 0.6%.

What about the Fbg (9 h) of the same compound?
Its Fbg is 302.4 mg/dL.

And the Hb (9 h)?
Its Hb is 12.9 g/dL.

What about the Ht (9 h) of the same compound?
Its Ht is 39.7%.

And the Lym (9 h)?
The Lym was 77.8%.

What about the MCHC (9 h) of the same compound?
Its MCHC is 32.6%.

And the MCV (9 h)?
The MCV was 62.9 fL.

And the Mono (9 h)?
Its Mono is 2.2%.

What about the Neu (9 h) of the same compound?
The Neu was 18.6%.

What about the PT (9 h) of the same compound?
The PT was 16.7 s.

And the Plat (9 h)?
The Plat was 114.4 x10_4/uL.

And the RBC (9 h)?
The RBC was 630.2 x10_4/ul.

And the Ret (9 h)?
Its Ret is 7.3%.

What about the WBC (9 h) of the same compound?
Its WBC is 82.7 x10_2/uL.

What about the KIDNEY_L (9 h) of the same compound?
The KIDNEY_L was 0.9 g.

What about the KIDNEY_R (9 h) of the same compound?
Its KIDNEY_R is 1 g.

What about the KIDNEY_TOTAL (9 h) of the same compound?
Its KIDNEY_TOTAL is 1.9 g.

What about the LIVER (9 h) of the same compound?
Its LIVER is 8.6 g.

And the ALP (9 h)?
The ALP was 1309.4 IU/L.

And the ALT (9 h)?
The ALT was 33.6 IU/L.

And the AST (9 h)?
The AST was 66.8 IU/L.

What about the BUN (9 h) of the same compound?
Its BUN is 9.6 mg/dL.

What about the CRE (9 h) of the same compound?
The CRE was 0.1 mg/dL.

And the DBIL (9 h)?
The DBIL was 0.014 mg/dL.

What about the GLC (9 h) of the same compound?
Its GLC is 178.8 mg/dL.

What about the IP (9 h) of the same compound?
Its IP is 9.4 mg/dL.

And the K (9 h)?
The K was 4.2 meq/L.

What about the LDH (9 h) of the same compound?
The LDH was 139 IU/L.

What about the Na (9 h) of the same compound?
Its Na is 141.4 meq/L.

And the PL (9 h)?
Its PL is 109 mg/dL.

What about the RALB (9 h) of the same compound?
The RALB was 3 g/dL.

What about the TBIL (9 h) of the same compound?
The TBIL was 0.038 mg/dL.

What about the TC (9 h) of the same compound?
Its TC is 54.4 mg/dL.

And the TG (9 h)?
Its TG is 53 mg/dL.

And the TP (9 h)?
The TP was 5.4 g/dL.

What about the gamma-GTP (9 h) of the same compound?
Its gamma-GTP is 1.6 IU/L.

What about the TERMINAL_BW (24 h) of the same compound?
Its TERMINAL_BW is 216 g.

And the APTT (24 h)?
Its APTT is 23.2 s.

And the Bas (24 h)?
Its Bas is 0%.

And the Eos (24 h)?
The Eos was 1%.

And the Fbg (24 h)?
Its Fbg is 290 mg/dL.

And the Hb (24 h)?
The Hb was 13.6 g/dL.

What about the Ht (24 h) of the same compound?
The Ht was 41%.

What about the Lym (24 h) of the same compound?
The Lym was 81.5%.

And the MCHC (24 h)?
The MCHC was 33.2%.

What about the MCV (24 h) of the same compound?
Its MCV is 62.3 fL.

What about the Mono (24 h) of the same compound?
Its Mono is 2.8%.

What about the Neu (24 h) of the same compound?
Its Neu is 13.5%.

And the PT (24 h)?
The PT was 17.8 s.

And the Plat (24 h)?
The Plat was 107.7 x10_4/uL.

What about the RBC (24 h) of the same compound?
The RBC was 658.6 x10_4/ul.

And the Ret (24 h)?
Its Ret is 6.6%.

And the WBC (24 h)?
Its WBC is 73 x10_2/uL.

And the KIDNEY_L (24 h)?
Its KIDNEY_L is 1 g.

And the KIDNEY_R (24 h)?
The KIDNEY_R was 1 g.

What about the KIDNEY_TOTAL (24 h) of the same compound?
The KIDNEY_TOTAL was 2 g.

And the LIVER (24 h)?
The LIVER was 10.5 g.

And the ALP (24 h)?
The ALP was 1988.8 IU/L.

What about the ALT (24 h) of the same compound?
The ALT was 42.4 IU/L.

And the AST (24 h)?
Its AST is 72.2 IU/L.

What about the BUN (24 h) of the same compound?
The BUN was 13.8 mg/dL.

And the CRE (24 h)?
The CRE was 0.1 mg/dL.

And the DBIL (24 h)?
Its DBIL is 0 mg/dL.

What about the GLC (24 h) of the same compound?
The GLC was 184.6 mg/dL.

What about the IP (24 h) of the same compound?
The IP was 6.5 mg/dL.

What about the K (24 h) of the same compound?
Its K is 4.5 meq/L.

What about the LDH (24 h) of the same compound?
Its LDH is 186 IU/L.

And the Na (24 h)?
Its Na is 141 meq/L.

What about the PL (24 h) of the same compound?
The PL was 123 mg/dL.

And the RALB (24 h)?
Its RALB is 3.1 g/dL.

And the TBIL (24 h)?
Its TBIL is 0.002 mg/dL.

And the TC (24 h)?
Its TC is 45.8 mg/dL.

What about the TG (24 h) of the same compound?
The TG was 233.4 mg/dL.

What about the TP (24 h) of the same compound?
Its TP is 5.5 g/dL.

And the gamma-GTP (24 h)?
Its gamma-GTP is 1.2 IU/L.
